The record followed here is patent US20240174637A1, “DEGRADERS OF GRK2 AND USES THEREOF” (Sonata Therapeutics, Inc., priority 2021, published 2024).

For experiment [1], the target named is T1, GRK2 (Homo sapiens, UniProt P25098).
T1 sequence (P25098 1-689): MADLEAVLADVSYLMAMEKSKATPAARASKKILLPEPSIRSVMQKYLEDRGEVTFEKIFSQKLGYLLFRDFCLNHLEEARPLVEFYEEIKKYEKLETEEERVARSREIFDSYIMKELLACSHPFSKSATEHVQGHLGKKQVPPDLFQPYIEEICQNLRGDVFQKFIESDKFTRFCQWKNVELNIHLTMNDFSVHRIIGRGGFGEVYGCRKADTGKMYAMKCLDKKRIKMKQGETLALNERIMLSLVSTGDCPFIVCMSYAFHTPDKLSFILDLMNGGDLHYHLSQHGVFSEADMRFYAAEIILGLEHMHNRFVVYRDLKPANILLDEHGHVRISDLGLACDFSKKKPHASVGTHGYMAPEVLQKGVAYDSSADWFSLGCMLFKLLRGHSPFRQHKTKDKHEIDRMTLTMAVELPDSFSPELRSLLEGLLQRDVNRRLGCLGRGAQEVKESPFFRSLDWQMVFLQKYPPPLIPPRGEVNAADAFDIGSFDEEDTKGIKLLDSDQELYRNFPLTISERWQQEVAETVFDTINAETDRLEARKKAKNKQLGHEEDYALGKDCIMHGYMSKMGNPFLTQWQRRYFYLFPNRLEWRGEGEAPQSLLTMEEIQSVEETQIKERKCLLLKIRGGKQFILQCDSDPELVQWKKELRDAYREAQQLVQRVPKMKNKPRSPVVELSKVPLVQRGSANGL
Briefly: GRK2 Inhibition Assay (TR-FRET, Example 1). Format: biochemical. The note with it: TR-FRET, 7 μM ATP; read-out: Enzymatic GRK2 Assay: IC50 (nM) (Example 1). The method, then: Assay: GRK2 enzyme (1 nM final concentration) was diluted in 25 mM HEPES, 10 mM MgCl2, 2 mM DTT, 0.01% Tween-20, and 1 mM EGTA. Then the GRK2 mixture was added into ProxiPlate-384 white plate and pre-incubated for 30 min with test compounds at room temperature. ATP (7 μM final concentration) and Ulight TopoIIα (50 nM final concentration) were added into the assay plate to initiate the reaction and the mixture was incubated at room temperature for 90 min. Then, Eu anti-TopoIIα (0.12 nM final concentration), BSA (0.01% final concentration), and EDTA (11 mM final concentration) in LANCE assay buffer were added into each well. After 60 min incubation time at room temperature, TR-FRET signal was measured by EnVision plate reader.
In general terms: In TR-FRET formats the signal depends on donor and acceptor labels being close together.

The subject of the next experiment is PAXF1657 EV. As to the kind of experiment: 7-day cellular proliferation assay (CellTiter-Glo), PAXF1657 EV. The format is cell-based. The protocol: (§1) In order to identify compounds specific for GRK2, we generated two isogenic cell line pairs of the pancreatic cancer cell line PAXF1657, a pair of cells stably overexpressing GRK2 cDNA or the control empty vector and a cell line pair of PAXF1657 GRK2 knockout clonal cells versus non-targeting control clonal cells.
(§2) Proliferation Assay: Cellular anti-proliferative activity of compounds was assessed by using the pancreatic cancer cell line, PAXF1657, stably overexpressing GRK2 cDNA or the control empty vector, as well as the parental urinary bladder cancer cell line, 5637. In addition, we also took advantage of GRK2 knockout cell lines that were generated via CRISPR. Cell lines were seeded into tissue culture treated, white-walled, 96-well plates at a density of 500 cells/well in RPMI1640 media supplemented with 10% H.I. FBS and penicillin/streptomycin. Plates were incubated overnight at 37° C., 5% CO2 to allow cells to adhere to the wells. GRK2 inhibitors were added to the cells using a 10-point dilution series with a final concentration ranging from 30 μM-0.0002 μM in 0.3% DMSO. At the time of compound addition, a set of plates, that were not treated with compounds, were collected and cell viability was measured using CellTiter-Glo (Promega). CellTiter-Glo reagent was added to the designed plates and luminescence was measuring using a Biotek Synergy plate reader. The compound treated cells were incubated for 3 days at 37° C., 5% CO2. The media was then aspirated from each well and replaced with fresh media containing GRK2 inhibitors. The compound treated cells were then incubated for an additional 4 days at 37° C., 5% CO2. Cell viability was assessed and at end of the 7-day compound treatment by CellTiterGlo.
Background: In ATP-based viability assays light output follows the ATP content of the culture.

A further experiment relates to PAXF1657 KO Clone #4. Briefly: 7-day cellular proliferation assay (CellTiter-Glo), PAXF1657 KO Clone #4. Format: cell-based. The method, then: as §1, §2
For experiment [2], the target named is T1, GRK2. Briefly: GRK2 Degradation Assay and Western Blot in PAXF1657 cells. Format: cell-based. Details: endogenous in cells; host or cells: PAXF1657. The method, then:
General Protocol: Degradation Assay and Western Blot. PAXF1657 cells were plated in 6-well, 24-well plates or 60 mm tissue culture treated dishes and incubated at 37° C. until 70% confluency. The media was aspirated, and the cells were treated with fresh media containing the compounds in the concentration range of 0 μM to 10 μM for a period of 6 to 24 hours. At the desired time points the cells were washed twice with cold PBS and lysed with lysis buffer (ice cold PBS+1% NP40 with 1/100 protease/phosphatase inhibitors) on ice for 8 mins followed by sonication at 70% intensity pulses for 10 seconds. The cells were centrifuged at 20000 g for 8 min at 4° C. The supernatants were collected and stored at −80° C.
Samples were mixed with NuPAGE LDS sample buffer and NuPAGE sample reducing buffer (3×), vortexed and heated at 95° C. for 10 min, and then analyzed by SDS-PAGE (NuPAGE 4-12%) followed by transfer to nitrocellulose membrane. […] The membranes were washed three times with TBST and incubated with GRK2 or R-actin antibodies in 5% milk in TBST at 4° C. overnight. The membranes were washed three times with TBST and incubated with anti-mouse IgG-HRP or anti-rabbit IgG-HRP at room temperature for 2 hours in 5% milk in TBST. The membranes were washed three times with TBST and developed with ECL Dura, ECL femto or ECL atto substrates.
On the technique in general: A western blot detects proteins with antibodies after separation by electrophoresis.

Where [3] appears, read: proliferation, read-out: GeoMean IC50 (UM) PAXF1657 EV.
[4] abbreviates: proliferation, read-out: GeoMean IC50 (uM) PAXF1657 KO Clone #4.
Setting [5] is: Conc 0.3 uM, read-out: Degradation Assay - 3 point: Degradation (%).
[6] abbreviates: Conc 1 uM, read-out: Degradation Assay - 3 point: Degradation (%).
[7] abbreviates: Conc 3 uM, read-out: Degradation Assay - 3 point: Degradation (%).
Setting [8] is: 168 h, 7-day, read-out: 7-day proliferation assay: IC50 GeoMean (uM) [Cell Line: PAXF1657 EV].
Where [9] appears, read: 168 h, 7-day, read-out: 7-day proliferation assay: IC50 GeoMean (uM) [Cell Line: PAXF1657 KO Clone #4].
The mark [10] stands for this setting: 1 uM, PAXF1657 EV, 24 hrs, read-out: % GRK2 degradation at 1 uM in PAXF1657 EV (24 hrs).
Where [11] appears, read: 3 uM, PAXF1657 EV, 24 hrs, read-out: % GRK2 degradation at 3 uM in PAXF1657 EV (24 hrs).

Read-outs that look alike come from different tables or passages of the source.

In the case of `Cc1ncsc1-c1ccc(CNC(=O)[C@@H]2C[C@@H](O)CN2C(=O)[C@@H](NC(=O)CCCCCOCCOCCOCCCCCCOc2ccc(F)c(CNC(=O)c3cccc(NCc4nnc(-c5ccncn5)n4C)c3)c2)C(C)(C)C)cc1` [Compound D88, (2S,4R)-1-((S)-2-(tert-butyl)-22-(4-fluoro-3-((3-(((4-methyl-5-(pyrimidin-4-yl)-4H-1,2,4-triazol-3-yl)methyl)amino)benzamido)methyl)phenoxy)-4-oxo-10,13,16-trioxa-3-azadocosan-1-oyl)-4-hydroxy-N-(4-(4-methylthiazol-5-yl)benzyl)pyrrolidine-2-carboxamide], the IC50 on GRK2 [1] lay within 100 to 1000 nM.

On to `Cc1ncsc1-c1ccc(CNC(=O)[C@@H]2C[C@@H](O)CN2C(=O)[C@@H](NC(=O)CCCCCOCCOCCOCCCCCCOc2ccc(F)c([C@H](C)NC(=O)c3cccc(NCc4nnc(-c5ccncn5)n4C)c3)c2)C(C)(C)C)cc1` [Compound D74, (2S,4R)-1-((S)-2-(tert-butyl)-22-(4-fluoro-3-((S)-1-(3-(((4-methyl-5-(pyrimidin-4-yl)-4H-1,2,4-triazol-3-yl)methyl)amino)benzamido)ethyl)phenoxy)-4-oxo-10,13,16-trioxa-3-azadocosan-1-oyl)-4-hydroxy-N-(4-(4-methylthiazol-5-yl)benzyl)pyrrolidine-2-carboxamide], for which the IC50 on GRK2 [1] lay in the range of 100 to 1000 nM.

On to `C[C@H](NC(=O)c1cccc(NCc2nnc(-c3ccncn3)n2C)c1)c1cccc(OCCCCCCOCCOCCOCCCCCC(=O)Nc2cccc3c2CN(C2CCC(=O)NC2=O)C3=O)c1` (stereo partly drawn) [Compound D55, N-((1S)-1-(3-((6-(2-(2-((6-((2-(2,6-dioxopiperidin-3-yl)-1-oxoisoindolin-4-yl)amino)-6-oxohexyl)oxy)ethoxy)ethoxy)hexyl)oxy)phenyl)ethyl)-3-(((4-methyl-5-(pyrimidin-4-yl)-4H-1,2,4-triazol-3-yl)methyl)amino)benzamide], for which the IC50 on GRK2 [1] was less than 100 nM.

Take `C[C@H](NC(=O)c1cccc(NCc2nnc(-c3ccncn3)n2C)c1)c1cc(OCCCCCCOCCOCCOCCCCCC(=O)Nc2cccc3c2CN(C2CCC(=O)NC2=O)C3=O)ccc1F` (stereo partly drawn) [Compound D53, N-((1S)-1-(5-((6-(2-(2-((6-((2-(2,6-dioxopiperidin-3-yl)-1-oxoisoindolin-4-yl)amino)-6-oxohexyl)oxy)ethoxy)ethoxy)hexyl)oxy)-2-fluorophenyl)ethyl)-3-(((4-methyl-5-(pyrimidin-4-yl)-4H-1,2,4-triazol-3-yl)methyl)amino)benzamide]: the IC50 at GRK2 [1] fell in the range of 100 to 1000 nM.

As to `C[C@@H](NC(=O)c1cccc(NCc2nnc(-c3ccncn3)n2C)c1)c1cccc(OCCCCCCn2cc(CCCCC(=O)Nc3cccc4c3CN(C3CCC(=O)NC3=O)C4=O)nn2)c1` (some centres unmarked) [Compound D166], the IC50 was 1.91 µM with PAXF1657 EV (setting [3]) and greater than 30 µM with PAXF1657 KO Clone #4 (setting [4]). Moreover, the inhibition at 0.3 µM on GRK2 [2] (setting [5]) was determined as 12.1%. For the same molecule, on GRK2 [2] (setting [6]), the inhibition at 1 µM came out at 32.4%. Moreover, the inhibition at 3 µM at GRK2 [2] (setting [7]) was 68.1%.

On to `Cc1ncsc1-c1ccc(CNC(=O)[C@@H]2C[C@@H](O)CN2C(=O)[C@@H](NC(=O)CCCc2cn(CCCCCOc3cccc(CNC(=O)c4cccc(NCc5nnc(-c6ccncn6)n5C)c4)c3)nn2)C(C)(C)C)cc1` [Compound D81], for which the IC50 with PAXF1657 EV (setting [8]) and in the experiment with PAXF1657 KO Clone #4 (setting [9]) was greater than 10 µM each time. In addition, at GRK2 [2] (0.3 uM, PAXF1657 EV, 24 hrs, read-out: % GRK2 degradation at 0.3 uM in PAXF1657 EV (24 hrs)), the inhibition at 0.3 µM was -3%. For the same molecule, the inhibition at 1 µM at GRK2 [2] (setting [10]) came to 1%. On GRK2 [2] (setting [11]), the inhibition at 3 µM stood at 5%.

`Cc1ncsc1-c1ccc(CNC(=O)[C@@H]2C[C@@H](O)CN2C(=O)[C@@H](NC(=O)COCCCOCCCCCOc2ccc3c(c2)[C@H](NC(=O)c2cccc(NCc4nnc(-c5ccncn5)n4C)c2)CCO3)C(C)(C)C)cc1` [Compound D161]: the IC50 with PAXF1657 EV (setting [3]) came to 1.56 µM; in the experiment with PAXF1657 KO Clone #4 (setting [4]), 7.51 µM. Also, the inhibition at 0.3 µM on GRK2 [2] (setting [5]) was 15%. Besides, the inhibition at 1 µM on GRK2 [2] (setting [6]) is 23%. Moreover, the inhibition at 3 µM on GRK2 [2] (setting [7]) was 30%.

`C[C@@H](NC(=O)c1cccc(NCc2nnc(-c3ccncn3)n2C)c1)c1cccc(OCCCCCn2cc(CCCCC(=O)Nc3cccc4c3CN(C3CCC(=O)NC3=O)C4=O)nn2)c1` (some centres unmarked) [Compound D164]: the IC50 in the experiment with PAXF1657 EV (setting [3]) is 5.09 µM; with PAXF1657 KO Clone #4 (setting [4]) it was greater than 30 µM. Further, the inhibition at 0.3 µM on GRK2 [2] (setting [5]) amounted to 17.1%. In addition, the inhibition at 1 µM on GRK2 [2] (setting [6]) was found to be 14.1%. At GRK2 [2] (setting [7]), the inhibition at 3 µM amounted to 42.6%.

With `C[C@@H](NC(=O)c1cccc(NCc2nnc(-c3ccncn3)n2C)c1)c1cccc(OCCCCCCn2cc(CCC(=O)Nc3cccc4c3CN(C3CCC(=O)NC3=O)C4=O)nn2)c1` (some centres unmarked) [Compound D159], the IC50 is 18.2 µM in the experiment on PAXF1657 EV (setting [3]) and greater than 30 µM with PAXF1657 KO Clone #4 (setting [4]). For the same molecule, at GRK2 [2] (setting [5]), the inhibition at 0.3 µM worked out at 10%. For the same molecule, the inhibition at 1 µM on GRK2 [2] (setting [6]) turned out to be 46.3%. Besides, on GRK2 [2] (setting [7]), the inhibition at 3 µM is 64.5%.

On to `Cn1c(CNc2cccc(C(=O)NCc3cccc(OCCOCCOCCOCCC(=O)Nc4cccc5c4CN(C4CCC(=O)NC4=O)C5=O)c3)c2)nnc1-c1ccncn1` (centres unmarked) [Compound D107], for which the IC50 with PAXF1657 EV (setting [8]) and with PAXF1657 KO Clone #4 (setting [9]) was greater than 10 µM throughout. For the same molecule, the inhibition at 1 µM at GRK2 [2] (setting [10]) was found to be 19%. The inhibition at 3 µM on GRK2 [2] (setting [11]) was found to be 20%.

Take `Cn1c(CNc2cccc(C(=O)N[C@@H]3CCOc4ccc(OCCCCCCOCCOCCOCCCCCC(=O)Nc5cccc6c5CN(C5CCC(=O)NC5=O)C6=O)cc43)c2)nnc1-c1ccncn1` (stereo partly drawn) [Compound D187, N-((4R)-6-(6-(2-(2-(6-(2-(2,6-dioxopiperidin-3-yl)-1-oxoisoindolin-4-ylamino)-6-oxohexyloxy)ethoxy)ethoxy)hexyloxy)chroman-4-yl)-3-((4-methyl-5-(pyrimidin-4-yl)-4H-1,2,4-triazol-3-yl)methylamino)benzamide]: the values for the IC50 with PAXF1657 EV (setting [3]) and in the experiment with PAXF1657 KO Clone #4 (setting [4]) were 2.09 µM and greater than 30 µM, respectively. Besides, the inhibition at 0.3 µM at GRK2 [2] (setting [5]) came to 11.8%. Also, the inhibition at 1 µM at GRK2 [2] (setting [6]) amounted to 23.8%. In addition, on GRK2 [2] (setting [7]), the inhibition at 3 µM came out at 63.1%.
